In brackets after ≈: the same amount, converted by molar mass.
Key:
C. glabrata = assay: Minimal fungicidal concentration (MFC) against C. glabrata; type: cell-based, Candida glabrata; conditions: Nakaseomyces glabratus; 24 h at 37° C. in PBS; less than 1% survival relative to DMSO control
Protocol: (§1) Two-fold dilution series of the compounds were prepared in 50% DMSO. 5 μl of these series were added to 95 μl PBS buffer inoculated with 1/500 cells of an overnight culture of either C. albicans, C. glabrata or C. krusei (final DMSO conc 2%). 2% DMSO served as negative control. After 24 h incubation at 37° C. of these cultures with the antifungal compounds in PBS, the cell cultures were plated on YPD agar and colony forming units (CFUs) were determined after incubation of the plates for 2 days. MFC was determined as the minimal concentration of a compound resulting in less than 1% survival of the yeast culture relative to the DMSO control.

A. fumigatus = assay: Minimal inhibitory concentration (MIC) against A. fumigatus; type: cell-based; conditions: Aspergillus fumigatus; minimal concentration that inhibits growth
HepG2 cells = assay: Cellular cytostatic and/or cytotoxic effect on HepG2 cells; type: cell-based
Protocol: Evaluation of the cytostatic and/or cytotoxic effect of compounds on certain specific eukaryotic cells is a standard procedure and well known to the person skilled in the art. The effect of a selection of compounds of the invention on the proliferation of HepG2 cells was measured.

C. albicans SC5314 [1] = assay: Mouse model for Candidiasis, fungal burden in the kidney; type: in vivo, BALB/c mice; conditions: 10 mg/kg intraperitonealy, once or twice a day; kidneys 5 days after infection; FIG. 2
Source text: An assay for in vivo efficacy measurement using mouse model for Candidiasis Fungal burden in the kidney of infected mice was used to evaluate the (prophylactic and/or therapeutic) activity of the compounds of the invention in murine models of infection by C. albicans, as described in the prior art (Tavares P M et al. Antimicrob Agents Chemother. 2008 December; 52(12):4522-5; Clemons K V, D A Stevens, J Antimicrob. Chemother. 2001; 47:183-186; Okawa Yet al., Biol Pharm Bull 2007, 30:1870-1873). In general, mice can be inoculated intravenously via lateral tail vein with 2×10^5 to […] C. albicans yeast cells suspended in saline. The compounds can be administered (for example intravenously or intraperitonealy or orally) before (for example 1 hour before) or after (for example 16 hours after) the challenge with C. albicans. After this first injection, four similar subsequent injections can be made with 24 h or other intervals. […] 100 μl-samples can be plated onto solid brain heart infusion (BHI) plates and C. albicans CFU (colony forming units) are counted after 2 days.
More specifically, the in vivo experiment was performed as following (in accordance with Tavares P M et al. Antimicrob Agents Chemother. 2008 December; 52(12):4522-5). […] 100 μl-samples were plated onto solid brain heart infusion (BHI) plates and C. albicans CFU (colony forming units) were counted after 2 days. […]

C. albicans SC5314 [2] = assay: Minimal fungicidal concentration (MFC) against C. albicans; type: cell-based; conditions: Candida albicans, 24 h at 37° C. in PBS, less than 1% survival relative to DMSO control
Protocol: as §1

Fusarium oxysporum = assay: Minimal inhibitory concentration (MIC) against F. oxysporum; type: cell-based; conditions: 24 h at 25° C. in ½ PDB, minimal concentration that inhibits growth
Protocol: (§2) To determine the MIC and MFC of a compound against Aspergillus flavus, Fusarium oxysporum or F. culmorum, a 2-fold dilution series of the compounds of the invention was incubated with the corresponding spore suspension in ½ PDB (potato dextrose broth, Difco) (2×10^4 spores/ml). […] MFC was determined as the minimal concentration of a compound resulting in less than 1% survival of the fungal culture relative to the DMSO control.

Aspergillus flavus = assay: Minimal inhibitory concentration (MIC) against A. flavus; type: cell-based; conditions: 24 h at 25° C. in ½ PDB, minimal concentration that inhibits growth
Protocol: as §2

C. albicans SC5314 [3] = assay: C. elegans model for C. albicans infection; type: in vivo; conditions: different concentrations; FIG. 1
Protocol: The in vivo efficacy of the compounds was assessed in a C. elegans model for Candida infection as described by Breger et al., 2007 (Breger, J., et al. 2007. PLoS Pathog. 3:[…]). To this end, L4 larvae of a double mutant (glp-[…]) of C. elegans were used and fed for 4 h on C. albicans SC5314 agar plates (YPD agar plates on the surface inoculated with 100 μl of an overnight culture in YPD and incubated for 16 h at 37° C.). Worms were collected and washed with M9 buffer containing 3 g/L KH2PO4, 6 g/L Na2HPO4, 5 g/L NaCl, 1 mM MgSO4, 10 μg/mL cholesterol and 100 μg/mL Kanamycin. Forty-to-fifty worms were suspended in 1 mL in each well of 24-well microtiterplates, in the presence or absence (DMSO control) of the compounds of the invention (at different concentrations). Survival of the worms was monitored daily. The percentage survival of the worms in the presence or absence of antifungal compounds was calculated each day relative to the survival at day 0. Data are means of duplicate measurements and experiments were performed at least twice. As positive controls for efficacy testing, amphotericin B (10 μg/ml) and miconazole (10 μg/ml) in DMSO can be used.

CCN1CC(C)(C)OC(=O)C1CC(=O)Nc1ccc(C(C)C)cc1 (centres unmarked) [CPD-06, 2-(4-ethyl-6,6-dimethyl-2-oxomorpholin-3-yl)-N-(4-isopropylphenyl)acetamide]
MFC (C. glabrata): 25 µg/mL (≈ 75.2 µM) | MIC (A. fumigatus): 1.6 µg/mL (≈ 4.81 µM) | LD30 48 h (lethal dose for 30% of the cells in culture) (HepG2 cells): >25 µM | activity against Candida albicans infection (CFU from kidneys) (C. albicans SC5314 [1]): strong activity | MFC (C. albicans SC5314 [2]): 12.5 µg/mL (≈ 37.6 µM) | MIC (Fusarium oxysporum): 50 µg/mL (≈ 150 µM) | MIC (Aspergillus flavus): 12.5 µg/mL (≈ 37.6 µM) | % survival of C. albicans infected C. elegans (C. albicans SC5314 [3]): increase in survival

From patent US20120252801A1, “ANTIFUNGAL COMPOUNDS” (Katholieke Universiteit Leuven, K.U.Leuven R&D, priority 2009, published 2012)
